# “And” between values parts separate entries of the source, which are not always exact repeats. Identical values can stand only once. After the bases stand the sugars from the 5' end (letter, count) and the backbone: PS all phosphorothioate, else s phosphorothioate and o phosphodiester by linkage. Methylation of C is not given here. e = 2'-O-(2-methoxyethyl) (MOE); k = constrained ethyl (cEt); d = 2'-deoxy (DNA)
# Target: IRF4
# Conditions: ASO, MM.1R, 0.0625 µM
row,Sequence,target mRNA inhibition
1,"CCGTGATCTGAGACTA (sugars k3 d10 k3, PS)",0%
2,"CGATCATCAACTTCTT (sugars k3 d10 k3, PS)",24% and 23%
3,"CGGATAGATCTGTGGT (sugars k3 d10 k3, PS)",-25%

# Same assay, conditions: ASO, MM.1R, 0.25 µM
row,Sequence,target mRNA inhibition [%]
1,"CCGTGATCTGAGACTA (sugars k3 d10 k3, PS)",13
2,"CGATCATCAACTTCTT (sugars k3 d10 k3, PS)",50
3,"CGGATAGATCTGTGGT (sugars k3 d10 k3, PS)",-3

# Same assay, conditions: ASO, MM.1R, 1 µM
row,Sequence,target mRNA inhibition
1,"CCACAACTCTCGCCTC (sugars k3 d10 k3, PS)",-9%
2,"CCACAAGCAGTGATGT (sugars k3 d10 k3, PS)",16%
3,"CCCATATACATTGAGG (sugars k3 d10 k3, PS)",16%
4,"CCCCGAGCTGCACACG (sugars k3 d10 k3, PS)",-5%
5,"CCCCTTAGGAACGAAG (sugars k3 d10 k3, PS)",-6%
6,"CCCGACCCTCCCCAAC (sugars k3 d10 k3, PS)",-35%
7,"CCCGGCCGATCATCAA (sugars k3 d10 k3, PS)",23%
8,"CCCTACCTTTTTTGGC (sugars k3 d10 k3, PS)",-7%
9,"CCGATGCTTCAAGACA (sugars k3 d10 k3, PS)",13%
10,"CCGGTAGAGTGAGATG (sugars k3 d10 k3, PS)",-3%
11,"CCGTGATCTGAGACTA (sugars k3 d10 k3, PS)",45% and 30%
12,"CCTATAACTTCTCCTG (sugars k3 d10 k3, PS)",-7%
13,"CCTCAGTTTGTGAAGC (sugars kddddddddddkekek, PS)",26%
14,"CCTCAGTTTGTGAAGC (sugars kkdddddddddkdkdk, PS)",8%
15,"CCTGAAAAGAGCCGCC (sugars k3 d10 k3, PS)",-3%
16,"CCTGAGTTACCGCATT (sugars k3 d10 k3, PS)",24%

row,Sequence,target mRNA inhibition
1,"CGAGGTGATTCTCGGG (sugars k3 d10 k3, PS)",15%
2,"CGATCATCAACTTCTT (sugars k3 d10 k3, PS)",72% and 75%
3,"CGCGACTCTGTCAGTT (sugars k3 d10 k3, PS)",8%
4,"CGGACACGCCCGACCC (sugars k3 d10 k3, PS)",7%
5,"CGGCAGTCTGCAAACA (sugars k3 d10 k3, PS)",24%
6,"CGGGAGCCCGGAGGAA (sugars k3 d10 k3, PS)",-3%
7,"CGGTCAGCAGAACCAC (sugars k3 d10 k3, PS)",-8%
8,"CGTGATCTGAGACTAC (sugars k3 d10 k3, PS)",25% and 36%
9,"CGTGTGCTTGCCAAGC (sugars kdddddddddkekeke, PS)",24% and 11%
10,"CGTGTGCTTGCCAAGC (sugars kkdddddddddkdkdk, PS)",67% and 53%
11,"CTATAGTGTTCCAGGA (sugars kkdddddddddkekek, PS)",43%
12,"CTCTATAGTGTTCCAG (sugars kkddddddddddkeke, PS)",27%
13,"CTCTATAGTGTTCCAG (sugars kkdddddddddkdkdk, PS)",31%
14,"CTCTATAGTGTTCCAG (sugars kkkdddddddddkeke, PS)",49%
15,"CTCTATAGTGTTCCAG (sugars kkkddddddddkekek, PS)",15%
16,"CTCTGTAACTGACTAA (sugars k3 d10 k3, PS)",16%

# Same assay, conditions: ASO, MM.1R, 4 µM
row,Sequence,target mRNA inhibition
1,"CCGTGATCTGAGACTA (sugars k3 d10 k3, PS)",71%
2,"CGATCATCAACTTCTT (sugars k3 d10 k3, PS)",92% and 93%
3,"CGGATAGATCTGTGGT (sugars k3 d10 k3, PS)",50%
4,"CGTAGCCCCTCAGGAA (sugars k3 d10 k3, PS)",81% and 59%

# Same assay, conditions: ASO, SK-MEL-28, 4 µM
row,Sequence,target mRNA inhibition [%]
1,"CCAAGTAATTTTAAGG (sugars k3 d10 k3, PS)",34
2,"CCAATAGTCTAGCTGG (sugars k3 d10 k3, PS)",19
3,"CCACAACTGCAGTTTG (sugars k3 d10 k3, PS)",23
4,"CCACAAGAAAGAGACC (sugars k3 d10 k3, PS)",-9
5,"CCAGGGTGAGCTGCTT (sugars k3 d10 k3, PS)",31
6,"CCAGGTTCATGCCCCG (sugars k3 d10 k3, PS)",54
7,"CCATATACATTGAGGC (sugars k3 d10 k3, PS)",44
8,"CCCAAAGAGAGTGGGT (sugars k3 d10 k3, PS)",0
9,"CCCAAGCCTTGAAGAG (sugars k3 d10 k3, PS)",6
10,"CCCACACCAGCCCGGG (sugars k4 d8 k4, PS)",-6
11,"CCCACATGTCCCGTGG (sugars k3 d10 k3, PS)",5
12,"CCCACGAAGGGCAGTG (sugars k3 d10 k3, PS)",35
13,"CCCACGGACGGAGGCG (sugars k3 d10 k3, PS)",-9
14,"CCCCAAAATACTTTGC (sugars k3 d10 k3, PS)",100
15,"CCCCAGTCTACTGCTG (sugars k3 d10 k3, PS)",47
16,"CCCCGAATAGGACCCC (sugars k3 d10 k3, PS)",56
17,"CCCCGCGGTCCCGCTG (sugars k3 d10 k3, PS)",41
18,"CCCCGGAAGAAGGCAC (sugars k3 d10 k3, PS)",36
19,"CCCTAGATAACATGAG (sugars k3 d10 k3, PS)",17
20,"CCCTATCACTGCCAAG (sugars k3 d10 k3, PS)",38
21,"CCCTTAGGAACGAAGA (sugars k3 d10 k3, PS)",-6
22,"CCGAATAGGACCCCTA (sugars k3 d10 k3, PS)",32
23,"CCGACACGCGCCGCTC (sugars k3 d10 k3, PS)",30
24,"CCGCACGCAAGGCTCG (sugars k3 d10 k3, PS)",16
25,"CCGCGAAGGCTCCTAC (sugars k3 d10 k3, PS)",14

row,Sequence,target mRNA inhibition [%]
1,"CCGGAGCAGGCCCGGG (sugars k3 d10 k3, PS)",-13
2,"CCGGAGGCCGCCGTGA (sugars k3 d10 k3, PS)",13
3,"CCGTATCCCCGTATCA (sugars k3 d10 k3, PS)",35
4,"CCTACACAGGCTAATC (sugars k3 d10 k3, PS)",13
5,"CCTACTGGGTACATGG (sugars k3 d10 k3, PS)",63
6,"CCTCAGGAAATGTCCA (sugars k3 d10 k3, PS)",37
7,"CCTCAGGAAATGTCCA (sugars k4 d8 k4, PS)",10
8,"CCTGAATTTACAGCAT (sugars k3 d10 k3, PS)",40
9,"CCTGGCGGCCTCCACG (sugars k3 d10 k3, PS)",-31
10,"CCTGGGACTCAGGTGG (sugars k4 d8 k4, PS)",7
11,"CCTGGGAGTAATAGTA (sugars k3 d10 k3, PS)",53
12,"CCTGGTCCAGGTTGCT (sugars k4 d8 k4, PS)",34
13,"CCTGTCACCTGGCAAC (sugars k3 d10 k3, PS)",41
14,"CCTTGAAGAGCGCGGC (sugars k3 d10 k3, PS)",24
15,"CCTTTTCAGAGTCCTG (sugars k3 d10 k3, PS)",58
16,"CGAAAACAGCCGCCGG (sugars k3 d10 k3, PS)",15
17,"CGCAAAACCCCTCAAG (sugars k3 d10 k3, PS)",19
18,"CGCAAGGCTCGGAGCG (sugars k3 d10 k3, PS)",10
19,"CGCAGCATCGAACTCC (sugars k3 d10 k3, PS)",33
20,"CGCCAGGCCGGCTAGG (sugars k3 d10 k3, PS)",10
21,"CGCGAAGGCTCCTACC (sugars k3 d10 k3, PS)",-41
22,"CGCTGAACTGAAATCT (sugars k3 d10 k3, PS)",37
23,"CGGCACAGGCGCGGAC (sugars k3 d10 k3, PS)",4
24,"CGTAACTCAGGCACCA (sugars k3 d10 k3, PS)",30
25,"CGTATGTCCATGGGAG (sugars k3 d10 k3, PS)",88

row,Sequence,target mRNA inhibition [%]
1,"CTAAACTCCTAAGTAC (sugars k3 d10 k3, PS)",14
2,"CTAACAGATAACGAGG (sugars k3 d10 k3, PS)",23
3,"CTAACTTACAGGACTA (sugars k3 d10 k3, PS)",31
4,"CTAAGCTTGATAAAGG (sugars k3 d10 k3, PS)",54
5,"CTAATACCTACCTGCC (sugars k3 d10 k3, PS)",47
6,"CTACAAGCAGTCATCA (sugars k3 d10 k3, PS)",44
7,"CTACAAGGTCTGAGTT (sugars k3 d10 k3, PS)",17
8,"CTACAGGCACGGCTTC (sugars k3 d10 k3, PS)",52
9,"CTACTATTGTGGAAAA (sugars k3 d10 k3, PS)",3
10,"CTAGAAAGAGCTGGTA (sugars k3 d10 k3, PS)",15
11,"CTAGAAAGTGATGCTC (sugars k3 d10 k3, PS)",39
12,"CTAGAACATGATGAGA (sugars k3 d10 k3, PS)",29
13,"CTAGATAACATGAGAG (sugars k3 d10 k3, PS)",53
14,"CTATAATTGGCACGAG (sugars k3 d10 k3, PS)",63
15,"CTCACGAGCACCTCAG (sugars k3 d10 k3, PS)",42
16,"CTCACTGCTCACTAAG (sugars k3 d10 k3, PS)",64
17,"CTCCAAAGCATAGAGT (sugars k3 d10 k3, PS)",23
18,"CTCCAACCCTAGATAA (sugars k3 d10 k3, PS)",2
19,"CTCCAGGGAATGGATA (sugars k3 d10 k3, PS)",27
20,"CTCCATTCAAGCCAGT (sugars k3 d10 k3, PS)",58
21,"CTCCCAGAGTTGTTCC (sugars k3 d10 k3, PS)",34
22,"CTCCTACCCGCCTGCT (sugars k3 d10 k3, PS)",15
23,"CTCCTATAACTTCTCC (sugars k3 d10 k3, PS)",33
24,"CTCGGCCGCCGCCCTC (sugars k3 d10 k3, PS)",37
25,"CTCTTAGGCACATCAA (sugars k3 d10 k3, PS)",61
